Test results taken from PMC5666424, “Marine-Derived 2-Aminoimidazolone Alkaloids. Leucettamine B-Related Polyandrocarpamines Inhibit Mammalian and Protozoan DYRK & CLK Kinases” (Marine Drugs, 2017).
Like-named read-outs stand apart in the source and are kept apart here.

Tests used:
Assay in all cases: Protein kinase assay
[1] = molecular target: CLK2 (Mus musculus, UniProt O35491)
[2] = molecular target: CDK9/cyclin T (Homo sapiens, UniProt P50750); conditions: 15 μmol/L ATP
[3] = molecular target: T1, DYRK2 (Homo sapiens, UniProt Q92630); assay type: biochemical; conditions: 15 μmol/L ATP; read-out: IC50 DYRK2
T1 sequence (Q92630 1-601): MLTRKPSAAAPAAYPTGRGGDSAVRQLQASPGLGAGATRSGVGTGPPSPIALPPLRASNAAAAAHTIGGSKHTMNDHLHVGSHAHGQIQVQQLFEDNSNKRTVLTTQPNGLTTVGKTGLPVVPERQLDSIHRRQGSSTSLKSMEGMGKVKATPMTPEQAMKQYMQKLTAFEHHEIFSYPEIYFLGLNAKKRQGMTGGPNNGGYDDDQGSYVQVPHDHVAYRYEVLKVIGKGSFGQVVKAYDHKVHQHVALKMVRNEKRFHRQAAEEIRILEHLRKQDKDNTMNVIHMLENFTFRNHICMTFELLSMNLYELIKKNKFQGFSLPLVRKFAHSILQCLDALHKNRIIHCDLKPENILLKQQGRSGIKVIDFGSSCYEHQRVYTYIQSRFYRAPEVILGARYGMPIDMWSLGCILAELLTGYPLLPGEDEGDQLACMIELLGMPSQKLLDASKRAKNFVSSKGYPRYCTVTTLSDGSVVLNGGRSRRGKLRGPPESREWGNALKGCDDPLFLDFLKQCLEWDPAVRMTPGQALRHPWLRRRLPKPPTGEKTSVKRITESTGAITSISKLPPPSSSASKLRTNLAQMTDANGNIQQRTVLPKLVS

[4] = molecular target: CLK3 (Mus musculus, UniProt O35492)
[5] = molecular target: CLK4 (Mus musculus, UniProt O35493)
[6] = molecular target: DYRK1A (Homo sapiens, UniProt Q13627); assay type: biochemical; conditions: 15 μmol/L ATP
[7] = molecular target: DYRK1B (Homo sapiens, UniProt Q9Y463); assay type: biochemical; conditions: 15 μmol/L ATP
[8] = molecular target: T2, DYRK3 (Homo sapiens, UniProt O43781); assay type: biochemical; conditions: 15 μmol/L ATP; read-out: IC50 DYRK3
T2 sequence (O43781 1-588): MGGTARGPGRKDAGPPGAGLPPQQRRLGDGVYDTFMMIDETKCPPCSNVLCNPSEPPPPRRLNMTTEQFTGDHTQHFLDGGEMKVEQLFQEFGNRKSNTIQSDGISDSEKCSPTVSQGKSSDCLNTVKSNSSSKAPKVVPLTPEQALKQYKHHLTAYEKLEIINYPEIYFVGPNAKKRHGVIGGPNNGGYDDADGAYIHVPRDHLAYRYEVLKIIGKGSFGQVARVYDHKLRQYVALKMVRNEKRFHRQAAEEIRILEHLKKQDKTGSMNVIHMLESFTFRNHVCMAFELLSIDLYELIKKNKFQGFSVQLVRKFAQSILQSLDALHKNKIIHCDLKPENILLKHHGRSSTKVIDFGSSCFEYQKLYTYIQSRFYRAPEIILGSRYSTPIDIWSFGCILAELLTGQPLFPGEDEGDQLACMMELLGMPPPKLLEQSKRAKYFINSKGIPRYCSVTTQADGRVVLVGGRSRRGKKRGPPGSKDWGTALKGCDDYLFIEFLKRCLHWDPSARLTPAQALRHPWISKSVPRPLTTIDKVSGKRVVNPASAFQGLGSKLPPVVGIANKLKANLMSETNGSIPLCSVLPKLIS

[9] = molecular target: CLK1 (Mus musculus, UniProt P22518)
[10] = molecular target: CK1δ/ε; assay type: biochemical, porcine; conditions: 15 μmol/L ATP
Description: (§1) CK1δ/ε (porcine brain, native) and LmCK1 (leishmania major, recombinant, expressed in E. coli as HIS fusion proteins) was assayed as described for CDK1 but in buffer C and using 25 μM CKS peptide ([…]pSAYSITA), a CK1-specific substrate.

[11] = molecular target: LmCK1 (Leishmania major, UniProt Q9NHE1); assay type: biochemical; conditions: 15 μmol/L ATP; read-out: IC50 LmCK1
Description: as §1

[12] = molecular target: T3, PfGSK-3 (Plasmodium falciparum, UniProt O77344); assay type: biochemical; conditions: 15 μmol/L ATP; read-out: IC50 PfGSK-3
T3 sequence (O77344 1-440): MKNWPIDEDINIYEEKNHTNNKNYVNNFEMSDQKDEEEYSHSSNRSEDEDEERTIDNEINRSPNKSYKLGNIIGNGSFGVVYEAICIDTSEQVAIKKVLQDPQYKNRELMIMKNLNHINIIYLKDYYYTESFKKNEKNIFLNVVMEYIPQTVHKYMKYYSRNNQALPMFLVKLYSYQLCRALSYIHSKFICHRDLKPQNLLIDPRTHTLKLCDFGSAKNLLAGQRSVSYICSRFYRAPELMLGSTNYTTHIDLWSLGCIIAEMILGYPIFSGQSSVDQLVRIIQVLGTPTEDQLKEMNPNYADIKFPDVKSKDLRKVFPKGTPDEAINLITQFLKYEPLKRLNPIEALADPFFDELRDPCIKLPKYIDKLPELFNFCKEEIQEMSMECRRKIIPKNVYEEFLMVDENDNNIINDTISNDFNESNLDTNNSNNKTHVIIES
Description: The parasitic kinase genes (Supplementary Data, Table S3) were optimized for expression in E. coli, synthesized, and cloned in pGEX-6P-1 (GE Healthcare, Sigma-Aldrich, St. Quentin Fallavier, France) with the type II restriction enzymes BamHI and XhoI for glutathione S-transferase (GST) fusion at the N-terminus (GenScript). Plasmids were transformed into chemically competent E. coli BL21(DE3), which were grown overnight at 37 °C in 2 × YT medium containing 100 μg/mL ampicillin. These cultures were used to inoculate 1 L volumes of 2 × YT medium (containing 100 μg/mL ampicillin) in 5 L flasks. The cultures were allowed to grow at 37 °C before the temperature was decreased to 18 °C. At an optical density at 600 nm (OD600) of about 1.0, protein expression was induced overnight at 18 °C with 0.1 mM isopropyl β-D-1-thiogalactopyranoside (IPTG). The bacteria were harvested by centrifugation and were frozen at −20 °C.
Cells were resuspended in a lysis buffer (PBS pH 7.4, 1% NP40, 1 mM DTT, 1 mM EDTA, 1 mM PMSF) in the presence of protease inhibitor cocktail (Roche), and lysozyme was added to 1 mg/mL and incubated 1 h at 4 °C with gentle agitation. Cells were then sonicated on ice before 6 mM MgCl2 and 25 U/mL benzonase (Novagen, Merck Millipore, Fontenay sous Bois, France) were added to degrade nucleic acids and decrease sample viscosity. After centrifugation at 4 °C, the soluble fraction was collected and proteins were bound to Glutathione sepharose 4B beads (GE Healthcare). Beads were washed three times with lysis buffer and once with modified buffer C (25 mM MOPS pH 7.0, 60 mM β-glycerophosphate, 15 mM p-nitrophenylphosphate, 15 mM EGTA, 15 mM MgCl2, 2 mM DTT, 1 mM sodium vanadate). Proteins were eluted with elution buffer (buffer C containing 30 mM reduced glutathione, 15% glycerol, and pH adjusted to 8.5).

[13] = molecular target: CDK1/cyclin B; assay type: biochemical, starfish; conditions: 15 μmol/L ATP
[14] = molecular target: T4, CDK2/cyclin A (Homo sapiens, UniProt P24941); assay type: biochemical; conditions: 15 μmol/L ATP; read-out: IC50 CDK2/cyclin A
T4 construct: made in house

[15] = molecular target: GSK-3α/β; assay type: biochemical, porcine; conditions: 15 μmol/L ATP
[16] = molecular target: T5, CDK5/p25 (Homo sapiens, UniProt Q00535); assay type: biochemical; conditions: 15 μmol/L ATP; read-out: IC50 CDK5/p25
T5 construct: made in house

[17] = read-out: IC50 CLK2, 15 μmol/L ATP
[18] = read-out: IC50 CLK3, 15 μmol/L ATP
[19] = read-out: IC50 CLK4, 15 μmol/L ATP
[20] = read-out: IC50 CLK1, 15 μmol/L ATP

Sequence of CDK9/cyclin T (P50750 whole entry): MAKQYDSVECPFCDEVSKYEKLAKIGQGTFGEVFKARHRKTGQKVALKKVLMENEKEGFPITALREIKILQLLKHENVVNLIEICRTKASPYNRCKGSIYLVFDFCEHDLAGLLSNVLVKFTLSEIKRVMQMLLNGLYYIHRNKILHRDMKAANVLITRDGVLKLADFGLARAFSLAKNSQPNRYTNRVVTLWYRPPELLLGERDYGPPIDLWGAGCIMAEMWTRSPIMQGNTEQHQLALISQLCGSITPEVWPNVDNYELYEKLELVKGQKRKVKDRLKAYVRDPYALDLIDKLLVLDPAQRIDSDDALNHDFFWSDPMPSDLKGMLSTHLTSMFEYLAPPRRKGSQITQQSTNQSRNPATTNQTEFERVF
Sequence of CDK9/cyclin T (O60563 whole entry partner): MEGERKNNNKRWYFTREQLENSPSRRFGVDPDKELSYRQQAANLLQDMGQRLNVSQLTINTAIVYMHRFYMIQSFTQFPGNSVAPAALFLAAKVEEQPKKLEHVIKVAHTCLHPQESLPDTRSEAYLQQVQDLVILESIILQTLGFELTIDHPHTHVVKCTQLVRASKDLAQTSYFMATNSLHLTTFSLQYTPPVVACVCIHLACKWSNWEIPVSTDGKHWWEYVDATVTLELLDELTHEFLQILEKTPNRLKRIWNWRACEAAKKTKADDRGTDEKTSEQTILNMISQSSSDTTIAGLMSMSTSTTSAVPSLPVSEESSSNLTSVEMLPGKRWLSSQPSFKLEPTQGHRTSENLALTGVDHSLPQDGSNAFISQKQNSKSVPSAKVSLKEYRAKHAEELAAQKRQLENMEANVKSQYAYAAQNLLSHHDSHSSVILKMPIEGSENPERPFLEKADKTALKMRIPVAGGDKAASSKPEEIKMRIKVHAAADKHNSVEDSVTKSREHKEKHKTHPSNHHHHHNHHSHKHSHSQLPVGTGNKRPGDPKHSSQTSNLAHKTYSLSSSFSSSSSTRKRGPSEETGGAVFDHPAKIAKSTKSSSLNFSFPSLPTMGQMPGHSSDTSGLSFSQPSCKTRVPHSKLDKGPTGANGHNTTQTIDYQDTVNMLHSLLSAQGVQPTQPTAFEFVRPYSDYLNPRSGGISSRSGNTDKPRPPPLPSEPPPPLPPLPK
Sequence of CLK2 (O35491 whole entry): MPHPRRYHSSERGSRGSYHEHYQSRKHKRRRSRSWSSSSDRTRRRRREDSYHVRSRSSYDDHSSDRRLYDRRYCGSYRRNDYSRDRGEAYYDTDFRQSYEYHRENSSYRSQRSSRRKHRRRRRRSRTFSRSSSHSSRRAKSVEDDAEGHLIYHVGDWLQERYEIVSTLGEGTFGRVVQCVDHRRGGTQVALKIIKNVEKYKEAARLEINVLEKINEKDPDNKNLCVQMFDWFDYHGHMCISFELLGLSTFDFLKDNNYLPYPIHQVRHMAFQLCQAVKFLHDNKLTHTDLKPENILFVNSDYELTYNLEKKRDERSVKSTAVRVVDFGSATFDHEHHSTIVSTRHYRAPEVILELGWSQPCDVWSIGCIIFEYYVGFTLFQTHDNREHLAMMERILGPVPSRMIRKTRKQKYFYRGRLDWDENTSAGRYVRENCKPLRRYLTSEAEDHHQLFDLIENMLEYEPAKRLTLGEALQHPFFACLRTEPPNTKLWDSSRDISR
Sequence of CLK3 (O35492 whole entry): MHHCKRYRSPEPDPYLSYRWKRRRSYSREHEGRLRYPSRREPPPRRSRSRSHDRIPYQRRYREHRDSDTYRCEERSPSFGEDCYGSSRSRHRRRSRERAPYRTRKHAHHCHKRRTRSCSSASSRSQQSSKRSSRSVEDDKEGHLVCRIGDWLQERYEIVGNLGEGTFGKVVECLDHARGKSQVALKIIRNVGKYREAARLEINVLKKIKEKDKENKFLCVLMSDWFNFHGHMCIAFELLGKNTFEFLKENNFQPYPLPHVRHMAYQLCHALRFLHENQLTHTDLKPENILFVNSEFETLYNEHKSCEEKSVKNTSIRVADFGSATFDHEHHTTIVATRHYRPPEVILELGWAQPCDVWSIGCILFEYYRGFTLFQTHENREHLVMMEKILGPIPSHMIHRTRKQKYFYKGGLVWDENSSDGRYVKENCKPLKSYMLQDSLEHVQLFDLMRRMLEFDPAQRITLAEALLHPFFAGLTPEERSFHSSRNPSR
Sequence of DYRK1B (Q9Y463 whole entry): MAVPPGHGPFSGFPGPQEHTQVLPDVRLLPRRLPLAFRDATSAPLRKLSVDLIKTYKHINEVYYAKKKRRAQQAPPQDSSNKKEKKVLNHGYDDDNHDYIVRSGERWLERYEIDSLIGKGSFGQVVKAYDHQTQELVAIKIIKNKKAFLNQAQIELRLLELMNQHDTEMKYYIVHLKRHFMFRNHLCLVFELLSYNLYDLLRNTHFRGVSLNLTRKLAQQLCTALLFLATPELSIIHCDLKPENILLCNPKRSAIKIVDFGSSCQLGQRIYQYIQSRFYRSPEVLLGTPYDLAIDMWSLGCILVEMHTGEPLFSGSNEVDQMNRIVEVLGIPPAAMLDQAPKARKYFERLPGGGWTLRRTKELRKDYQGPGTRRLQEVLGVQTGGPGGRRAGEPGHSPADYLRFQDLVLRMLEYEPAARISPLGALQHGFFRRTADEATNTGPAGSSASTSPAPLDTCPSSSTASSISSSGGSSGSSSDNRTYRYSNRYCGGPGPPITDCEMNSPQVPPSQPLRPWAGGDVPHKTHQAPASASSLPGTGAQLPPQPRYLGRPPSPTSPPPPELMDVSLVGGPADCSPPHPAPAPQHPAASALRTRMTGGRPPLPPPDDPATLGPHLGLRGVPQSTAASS
T5 sequence (Q00535 whole entry): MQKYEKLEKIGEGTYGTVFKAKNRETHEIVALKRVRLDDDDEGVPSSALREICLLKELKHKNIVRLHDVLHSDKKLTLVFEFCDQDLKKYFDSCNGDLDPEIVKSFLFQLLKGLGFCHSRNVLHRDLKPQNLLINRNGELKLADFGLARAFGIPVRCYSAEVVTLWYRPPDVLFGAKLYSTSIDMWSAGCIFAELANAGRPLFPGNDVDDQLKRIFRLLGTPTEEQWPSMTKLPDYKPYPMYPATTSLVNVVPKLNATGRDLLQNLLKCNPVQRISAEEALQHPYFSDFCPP
T5 sequence (Q15078 99-307 partner limits assumed): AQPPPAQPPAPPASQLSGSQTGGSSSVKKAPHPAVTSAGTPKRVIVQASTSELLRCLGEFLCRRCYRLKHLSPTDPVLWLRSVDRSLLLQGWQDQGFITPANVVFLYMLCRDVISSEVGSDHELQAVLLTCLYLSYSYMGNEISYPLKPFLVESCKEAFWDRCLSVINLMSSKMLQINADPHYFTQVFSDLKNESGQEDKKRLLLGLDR
Sequence of LmCK1 (Q9NHE1 entry or part of it): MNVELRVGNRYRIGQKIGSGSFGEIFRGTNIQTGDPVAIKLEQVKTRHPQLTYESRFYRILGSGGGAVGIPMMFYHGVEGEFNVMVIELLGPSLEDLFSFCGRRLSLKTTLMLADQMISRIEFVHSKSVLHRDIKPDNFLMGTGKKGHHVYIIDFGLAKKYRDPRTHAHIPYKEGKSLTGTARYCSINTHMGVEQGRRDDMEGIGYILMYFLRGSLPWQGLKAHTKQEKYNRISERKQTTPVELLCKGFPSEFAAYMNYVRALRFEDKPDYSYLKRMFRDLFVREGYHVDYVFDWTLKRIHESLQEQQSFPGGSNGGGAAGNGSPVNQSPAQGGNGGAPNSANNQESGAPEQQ
Sequence of CLK4 (O35493 whole entry): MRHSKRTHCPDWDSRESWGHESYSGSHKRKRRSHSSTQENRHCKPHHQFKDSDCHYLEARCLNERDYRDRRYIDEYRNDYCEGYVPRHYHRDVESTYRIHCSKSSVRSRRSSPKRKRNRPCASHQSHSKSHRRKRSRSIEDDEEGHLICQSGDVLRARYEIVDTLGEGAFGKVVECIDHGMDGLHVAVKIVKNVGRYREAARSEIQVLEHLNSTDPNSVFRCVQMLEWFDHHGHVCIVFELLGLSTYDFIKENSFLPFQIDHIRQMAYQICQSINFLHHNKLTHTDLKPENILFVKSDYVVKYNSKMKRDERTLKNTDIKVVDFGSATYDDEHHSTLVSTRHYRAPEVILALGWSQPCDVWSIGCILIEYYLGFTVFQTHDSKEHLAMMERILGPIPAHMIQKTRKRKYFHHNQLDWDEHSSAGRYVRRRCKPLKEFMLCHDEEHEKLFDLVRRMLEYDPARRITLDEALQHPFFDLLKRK
Sequence of CLK1 (P22518 whole entry): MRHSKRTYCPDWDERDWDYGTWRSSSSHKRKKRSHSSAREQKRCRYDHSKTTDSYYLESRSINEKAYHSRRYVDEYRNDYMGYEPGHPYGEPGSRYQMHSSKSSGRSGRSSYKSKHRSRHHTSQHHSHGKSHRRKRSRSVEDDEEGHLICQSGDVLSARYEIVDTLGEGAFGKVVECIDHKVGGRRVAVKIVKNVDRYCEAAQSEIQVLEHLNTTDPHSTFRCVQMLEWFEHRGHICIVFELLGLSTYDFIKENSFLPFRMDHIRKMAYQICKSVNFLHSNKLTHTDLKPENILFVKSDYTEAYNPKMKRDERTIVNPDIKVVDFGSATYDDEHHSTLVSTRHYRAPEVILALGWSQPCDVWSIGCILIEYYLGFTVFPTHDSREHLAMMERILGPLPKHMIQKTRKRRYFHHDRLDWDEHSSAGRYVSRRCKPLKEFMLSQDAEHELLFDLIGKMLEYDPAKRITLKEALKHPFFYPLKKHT

Row | SMILES | IC50 [3] | IC50 [6] | IC50 [7] | IC50 [8] | IC50 [1, 17] | IC50 ([2]; read-out: IC50 CDK9/cyclin T) | IC50 [11] | IC50 [12] | IC50 [13] | IC50 [14] | IC50 [15] | IC50 [16] | IC50 [4, 18] | IC50 [5, 19] | IC50 [9, 20] | IC50 [10] | IC50 ([1]; IC50 CLK2, 15 μmol/L ATP) | IC50 ([2]; IC50 CDK9/cyclin T) | IC50 ([4]; IC50 CLK3, 15 μmol/L ATP) | IC50 ([5]; IC50 CLK4, 15 μmol/L ATP) | other results
1 | COc1cc(/C=C2\N=C(N)NC2=O)ccc1O [PAC12, polyandrocarpamine A] | 0.24 µM | 0.3 µM | 0.47 µM | 0.34 µM | – | – | – | – | – | – | – | – | – | – | – | – | 0.64 µM | 0.9 µM | 2.7 µM | 0.47 µM | IC50 ([9]; IC50 CLK1, 15 μmol/L ATP): 0.47 µM; IC50 ([10]; listed as 12): 5 µM
2 | CN(C)CCOc1ccc(C=C2N=C(N)NC2=O)cc1 [PAC6] | > 10 µM | > 10 µM | > 10 µM | > 10 µM | > 10 µM | > 10 µM | > 10 µM | > 10 µM | > 10 µM | > 10 µM | > 10 µM | > 10 µM | > 10 µM | > 10 µM | > 10 µM | > 10 µM | – | – | – | – | –
3 | NC1=NC(=Cc2cccc(Br)c2)C(=O)N1 [PAC3] | 2.2 µM | 2.1 µM | 8.2 µM | > 10 µM | 6.3 µM | > 10 µM | > 10 µM | > 10 µM | > 10 µM | ≥ 10 µM | > 10 µM | > 10 µM | > 10 µM | 2.3 µM | 2.2 µM | ≥ 10 µM | – | – | – | – | –
4 | NC1=NC(=Cc2ccccc2N2CCOCC2)C(=O)N1 [PAC7] | > 10 µM | > 10 µM | > 10 µM | > 10 µM | > 10 µM | > 10 µM | > 10 µM | > 10 µM | > 10 µM | > 10 µM | > 10 µM | > 10 µM | > 10 µM | > 10 µM | > 10 µM | > 10 µM | – | – | – | – | –
5 | COc1cc(/C=C2\N=C(N)NC2=O)ccc1O [PAC1, polyandrocarpamine A] | 0.14 µM | 0.23 µM | 0.4 µM | 0.28 µM | – | – | – | – | > 10 µM | – | > 10 µM | – | – | – | – | – | 1.2 µM | 1.1 µM | 2.3 µM | 0.4 µM | IC50 ([9]; IC50 CLK1, 15 μmol/L ATP): 0.43 µM; IC50 ([10]; listed as 1): 5.2 µM
6 | NC1=NC(=Cc2c[nH]nc2-c2ccccc2)C(=O)N1 [PAC9] | > 10 µM | > 10 µM | > 10 µM | > 10 µM | > 10 µM | > 10 µM | 0.63 µM | > 10 µM | > 10 µM | > 10 µM | > 10 µM | > 10 µM | > 10 µM | > 10 µM | ≥ 10 µM | 3.6 µM | – | – | – | – | –
7 | NC1=N/C(=C\c2ccc(O)c(O)c2)C(=O)N1 [PAC2, polyandrocarpamine B] | 0.48 µM | 0.75 µM | 1.1 µM | 0.9 µM | – | – | – | – | – | – | – | – | – | – | – | – | 2.5 µM | 2 µM | 9.2 µM | 0.95 µM | –

More lines, main results first:

Row | IC50 [3] | IC50 [6] | IC50 [7] | IC50 [8] | IC50 [1, 17] | IC50 ([2]; read-out: IC50 CDK9/cyclin T) | IC50 [11] | IC50 [12] | IC50 [13] | IC50 [14] | IC50 [15] | IC50 [16] | IC50 [4, 18] | IC50 [5, 19] | IC50 [9, 20] | IC50 [10] | SMILES | IC50 ([1]; IC50 CLK2, 15 μmol/L ATP) | IC50 ([2]; IC50 CDK9/cyclin T) | IC50 ([4]; IC50 CLK3, 15 μmol/L ATP) | IC50 ([5]; IC50 CLK4, 15 μmol/L ATP) | other results
8 | 0.38 µM | 0.59 µM | 0.96 µM | 0.68 µM | – | – | – | – | – | – | – | – | – | – | – | – | NC1=N/C(=C\c2ccc(O)c(O)c2)C(=O)N1 [PAC13, polyandrocarpamine B] | 2.42 µM | 1.8 µM | 10 µM | 0.91 µM | –
9 | 4.5 µM | 4 µM | > 10 µM | 5.1 µM | > 10 µM | > 10 µM | > 10 µM | > 10 µM | > 10 µM | ≥ 10 µM | > 10 µM | > 10 µM | > 10 µM | ≥ 10 µM | ≥ 10 µM | ≥ 10 µM | COc1ccc(C=C2N=C(N)NC2=O)cc1F [PAC4] | – | – | – | – | –
10 | 0.64 µM | 1.3 µM | 6.1 µM | 5.7 µM | 7.5 µM | ≥ 10 µM | > 10 µM | > 10 µM | > 10 µM | > 10 µM | > 10 µM | > 10 µM | > 10 µM | 2.4 µM | 2.2 µM | > 10 µM | COc1cc(C=C2N=C(N)NC2=O)ccc1F [PAC5] | – | – | – | – | –
